Test results as given in ChEMBL document CHEMBL1201862, “PubChem BioAssay data set” (2004).
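Briefly, cells in 96-well plates were exposed to five compound concentrations for 48 h, and endpoints were estimated by linear interpolation. The concentration for 50% growth inhibition is given as GI50.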 Active and inactive are the calls of the source. Cut-off read from the data, not from the text of the source: active = GI50 up to about 1.1 µM and inactive = higher.

Experiments:
Assay in all cases: NCI anticancer screen, dose series, 48 h
[1] = tested on: COLO 205
[2] = tested on: A549
[3] = tested on: SF-539
[4] = tested on: SW-620
[5] = tested on: KM12
[6] = tested on: HOP-62
[7] = tested on: Malme-3M
[8] = tested on: TK-10
[9] = tested on: HOP-92
[10] = tested on: UACC-62
[11] = tested on: CCRF-CEM
[12] = tested on: SK-OV-3
[13] = tested on: ACHN
[14] = tested on: M14
[15] = tested on: 786-0
[16] = tested on: SK-MEL-5
[17] = tested on: U-251
[18] = tested on: NCI/ADR-RES
[19] = tested on: OVCAR-5
[20] = tested on: Hs-578T

Measured: GI50

C[C@]12CCC(=O)C=C1CC[C@@H]1[C@@H]2CC[C@]2(C)C(=O)/C(=C\c3ccccc3)C[C@@H]12
inactive: [1] 24.2 µM | [2] 22.6 µM | [3] 21.6 µM | [4] 22.8 µM | [5] 20.4 µM | [6] 38.6 µM | [7] 29.4 µM | [8] 44.7 µM | [9] 23.2 µM | [10] 23.4 µM | [11] 2.8 µM | [12] 72.3 µM | [13] 33.3 µM | [14] 22.4 µM | [15] 26.1 µM | [16] 14.2 µM | [17] 29.4 µM | [18] 14 µM | [19] 50 µM

CC(C)c1ccc(/C=C2\N=C(c3ccc([N+](=O)[O-])cc3)OC2=O)cc1
inactive: [20] > 100 µM | [1] > 100 µM | [2] > 100 µM | [3] > 100 µM | [4] > 100 µM | [5] > 100 µM | [6] > 100 µM | [7] 60.3 µM | [8] > 100 µM | [9] > 100 µM | [10] > 100 µM | [11] 55.7 µM | [12] > 100 µM | [13] > 100 µM | [14] > 100 µM | [15] > 100 µM | [16] > 100 µM | [17] 54.2 µM | [19] > 100 µM

CSc1c(C#N)c(O)nc(N)c1C(=O)Nc1ccc(C)cc1
inactive: [20] > 100 µM | [1] > 100 µM | [2] > 100 µM | [3] > 100 µM | [4] > 100 µM | [5] > 100 µM | [7] > 100 µM | [8] > 100 µM | [10] > 100 µM | [11] 97.5 µM | [12] > 100 µM | [14] > 100 µM | [15] > 100 µM | [16] > 100 µM | [17] > 100 µM | [18] > 100 µM | [19] > 100 µM

CC(=O)OCC1OC(n2c(C)c(C(C)=O)c(-c3ccc(Cl)cc3)c(C#N)c2=S)C(OC(C)=O)C(OC(C)=O)C1OC(C)=O (stereo not drawn)
inactive: [1] > 100 µM | [2] > 100 µM | [3] > 100 µM | [4] > 100 µM | [5] > 100 µM | [6] > 100 µM | [7] > 100 µM | [8] > 100 µM | [9] > 100 µM | [10] > 100 µM | [11] > 100 µM | [12] > 100 µM | [13] > 100 µM | [14] > 100 µM | [15] > 100 µM | [16] > 100 µM | [17] > 100 µM | [18] > 100 µM

O=[N+]([O-])C(=C1Nc2ccccc2N1)/C(Cl)=C(/Cl)N1CCOCC1
inactive: [20] 34.6 µM | [1] 80.9 µM | [2] > 100 µM | [3] > 100 µM | [4] 30.5 µM | [5] > 100 µM | [6] 97.9 µM | [7] 27.2 µM | [10] 77.6 µM | [11] 50.8 µM | [12] > 100 µM | [13] 71.8 µM | [14] 88.5 µM | [15] 98.9 µM | [17] 61.9 µM | [18] 57.8 µM | [19] > 100 µM

COc1cc(OC)c2c(c1-c1ccc(C)cc1)CC(C)N(Cc1ccccc1)[C@H]2C (stereo partly drawn)
inactive: [20] 12.7 µM | [1] 32.3 µM | [2] 44.2 µM | [3] 32.1 µM | [4] 34.8 µM | [5] 28.2 µM | [6] 59 µM | [7] 19.3 µM | [8] 38.3 µM | [10] 39.1 µM | [11] 7.76 µM | [12] 31.8 µM | [13] 18.3 µM | [14] 43.2 µM | [15] 33.7 µM | [16] 19.4 µM

C=C(C(=O)OCC)C(=O)OCC
inactive: [20] > 100 µM | [1] > 100 µM | [2] > 100 µM | [3] > 100 µM | [4] > 100 µM | [5] > 100 µM | [6] > 100 µM | [7] > 100 µM | [8] > 100 µM | [9] > 100 µM | [10] > 100 µM | [11] > 100 µM | [12] > 100 µM | [13] > 100 µM | [14] > 100 µM | [15] > 100 µM | [16] > 100 µM | [17] > 100 µM | [19] > 100 µM

COC(=O)c1sc2ncc3c(c2c1N)CC(C)CC3 (stereo not drawn)
inactive: [1] > 100 µM | [2] > 100 µM | [3] > 100 µM | [4] > 100 µM | [5] > 100 µM | [6] > 100 µM | [7] > 100 µM | [8] > 100 µM | [9] > 100 µM | [10] > 100 µM | [11] > 100 µM | [12] > 100 µM | [13] > 100 µM | [14] > 100 µM | [15] 81.3 µM | [16] > 100 µM | [17] > 100 µM | [18] > 100 µM | [19] > 100 µM

COc1ccc(/C=C/C(=O)CC(=O)/C=C/c2ccc(OC)cc2)cc1
inactive: [20] 36.4 µM | [1] 69.5 µM | [2] 80.4 µM | [3] 30.3 µM | [4] 52.5 µM | [5] > 100 µM | [6] > 100 µM | [7] 34.5 µM | [10] 54.2 µM | [11] 20.9 µM | [12] > 100 µM | [14] 77.8 µM | [15] 30.8 µM | [16] 67.6 µM | [17] 41.3 µM | [18] 36.1 µM | [19] 46.2 µM

COc1ccc([C@]23CCC4(OCC(C)(C)CO4)[C@H]4CON(O[C@H](O[C@@H]5CCCCC5C(C)(C)c5ccccc5)C2)[C@@H]43)cc1OC (stereo partly drawn)
inactive: [1] 34.7 µM | [2] 42.3 µM | [3] 5.81 µM | [4] 36.4 µM | [5] 29.6 µM | [6] 97.3 µM | [7] 56.6 µM | [8] 78.5 µM | [9] 25.8 µM | [10] 30.4 µM | [11] 29.5 µM | [12] 78.3 µM | [14] 35.6 µM | [15] 50.5 µM | [16] 22.2 µM | [17] 64 µM | [18] 31 µM | [19] 89.1 µM

CCc1cccc(CC)c1Nc1nc2c(s1)C(=O)c1ccccc1C2=O
inactive: [20] 22.2 µM | [1] 22.9 µM | [2] 31.4 µM | [3] 24.2 µM | [4] 26.1 µM | [5] 18.1 µM | [6] 16 µM | [7] 16 µM | [8] 21.2 µM | [9] 19.5 µM | [10] 17.2 µM | [11] 38.9 µM | [12] 27.3 µM | [13] 17.6 µM | [14] 17.4 µM | [15] 20.9 µM | [16] 20.7 µM | [17] 15.8 µM | [19] 20.3 µM
